Measurements as given in the supplement of paper PMC10307832.

Tests used:
Experiment in all cases: relative viability (nuclei count vs DMSO), 5 days (fraction); higher = more cells survive
[1] = compound: O=C(CCCCCCNC(=O)c1cnc(N(c2ccccc2)c2ccccc2)nc1)NO [Ricolinostat] + CC(C)C[C@H](NC(=O)[C@H](Cc1ccccc1)NC(=O)c1cnccn1)B(O)O [Bortezomib] (partner 0.002 µM)
Procedure, shortened: (§1)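 Medians of duplicate plates are given as relative viability. That measure is the nuclei count in treated wells divided by the count in vehicle wells. Counts were taken on 4× images of lung cancer cell lines in 1536-well plates, 5 days after pin-tool dosing the day after seeding with one drug alone or a fixed anchor-drug dose plus five library-drug doses (not always all listed) in √10 steps.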

[2] = compound: C1=CC=C(C(=C1)C2=CC=C(C=C2)C3=CSC4=C3C(=C(C(=O)N4)C#N)O)O + N=C(N)NC(=N)NCCc1ccccc1 [Phenformin] (partner 250 µM)
Procedure, shortened: as §1

TGX 221 + Crizotinib = compound: CC1=CN2C(=O)C=C(N=C2C(=C1)C(C)NC3=CC=CC=C3)N4CCOCC4 [TGX 221] + C[C@@H](Oc1cc(-c2cnn(C3CCNCC3)c2)cnc1N)c1c(Cl)ccc(F)c1Cl [Crizotinib] (partner 1 µM)
Procedure, shortened: as §1

[3] = compound: C1=CC=C(C(=C1)C2=CC=C(C=C2)C3=CSC4=C3C(=C(C(=O)N4)C#N)O)O + CC(=O)c1c(C)c2cnc(Nc3ccc(N4CCNCC4)cn3)nc2n(C2CCCC2)c1=O [Palbociclib] (partner 0.5 µM)
Procedure, shortened: as §1

| Cell Line | relative viability ([1]; first compound 0.08 µM) | relative viability ([1]; first compound 0.253 µM) | relative viability ([1]; first compound 0.8 µM) | relative viability ([1]; first compound 2.53 µM) | relative viability ([2]; first compound 0.08 µM) | relative viability ([2]; first compound 0.253 µM) | relative viability ([2]; first compound 0.8 µM) | relative viability ([2]; first compound 2.53 µM) | relative viability ([2]; first compound 8 µM) | relative viability (TGX 221 + Crizotinib; first compound 0.08 µM) | relative viability (TGX 221 + Crizotinib; first compound 0.253 µM) | relative viability (TGX 221 + Crizotinib; first compound 0.8 µM) | relative viability (TGX 221 + Crizotinib; first compound 2.53 µM) | relative viability (TGX 221 + Crizotinib; first compound 8 µM) | relative viability ([3]; first compound 0.08 µM) | relative viability ([3]; first compound 0.253 µM) | relative viability ([3]; first compound 0.8 µM) | relative viability ([3]; first compound 2.53 µM) | relative viability ([3]; first compound 8 µM) |
| --- | --- | --- | --- | --- | --- | --- | --- | --- | --- | --- | --- | --- | --- | --- | --- | --- | --- | --- | --- |
| ABC-1 | 0.311 | 0.302 | 0.25 | 0.264 | 0.241 | 0.274 | 0.241 | 0.259 | 0.239 | 0.946 | 0.809 | 1.25 | 1.01 | 1.26 | 0.615 | 0.921 | 0.804 | 0.591 | 0.433 |
| ChaGo-K-1 | 1 | 1.18 | 0.959 | 0.9 | 0.448 | 0.523 | 0.519 | 0.483 | 0.407 | 1.1 | 1.01 | 1.18 | 1.11 | 0.989 | 0.839 | 0.913 | 1.01 | 1.01 | 0.836 |
